Values quoted from earlier work in paper PMC5152921, “Evolutionary and Functional Diversification of the Vitamin D Receptor-Lithocholic Acid Partnership” (PLoS ONE, 2016).

Test system: all eight VDRs tested
Set-up: method as in PMID 25279795, PMID 25855982
Details: transient transactivation assays; cited from earlier work

SMILES: C=C1/C(=C\C=C2/CCC[C@]3(C)[C@@H]([C@H](C)CCCC(C)(C)O)CC[C@@H]23)C[C@@H](O)C[C@@H]1O [1,25D3, 1α,25-dihydroxyvitamin D3]
- VDR transactivation: activates all eight VDRs tested
